Assay results as given in EP0722733A1, “BLOOD VESSEL THICKENING INHIBITOR AND SMOOTH MUSCLE FIBER MIGRATION INHIBITOR EACH CONTAINING 7-THIAPROSTAGLANDIN E 1? COMPOUND AS ACTIVE INGREDIENT” (TEIJIN LIMITED, priority 1993, dated 1995).

Legend:
[1] = system: vascular smooth muscle cells derived from normal human arteries; test: Suppression of PDGF-mediated migration of human vascular smooth muscle cells in vitro (Transwell chamber); type: cell-based; settings: human PDGF 10 ng/ml, 6 hours; for No. of wandering cells: average cell count of five fields ± standard deviation, control 86.4±20.1
Protocol: To investigate the activity of the tested compound to inhibit cell migration, the migrated cells mediated by human platelet derived growth factor (PDGF) were measured in the following way using the vascular smooth muscle cells derived from normal human arteries and according to the method of MaCarthy et al. (J. Cell. Biol. 97, 772-777 (1983)). That is, a Transwell Chamber (Costar Co., registered trademark) was used to measure the inhibitory action. The chamber was divided into two layers, upper and lower, by a 8 µm pore size membrane filter (PVP - free polycarbonate filter, Nucleopore Co., registered trademark). The filter was precoated on its lower surface with 5 µg of rat tail collagen type 1 (Becton Dickinson Co.) To the upper chamber (100 µl) was added a 1.5 × 10^6/ml suspension of cells (DMEM (made by Flow Laboratories Co.) containing 0.1% BSA (made by Nakalai Tesque Co.) In the lower chamber (600 µl) was placed the same solution diluted by human PDGF (made by Becton Dickinson) to give a final concentration of 10 ng/ml. At this time, the tested compound was added in different concentrations to both the upper and lower chambers. The chambers were incubated at 37°C under 5% CO2 for 6 hours, then the filter was removed, fixed in 99.7% methanol, then stained with hematoxylin and eosin. The cells on the upper surface of the filter were removed by wiping with a cotton swab and the cells that had migrated to the lower surface of the filter were counted under a high output microscope (×200, ×400). Usually, five fields were counted per filter. The migrated cells were shown by the average cell count of five fields ± standard deviation. The significant difference was examined by the Student's two-tailed t test.

[2] = system: Rat Carotid Artery Endothelium; test: Suppression of intima thickening after balloon catheter trauma to rat carotid artery endothelium; type: in vivo, SD rats; settings: for Intima: from 2 days before to 14 days after surgery, area of thickened intima; for Intima/Media / Media: 14 days after surgery; for Media: area of media; for Suppression rate: intima thickening suppression rate = (1-T/C) x 100 of Intima/Media versus solvent control
Protocol: The test was performed in the following manner in accordance with the method of Krauz et al. (Lab. Invest., vol. 49, p. 208, 1983). Male SD rats having a body weight of 400 to 500g was used. The neck of each rat was opened under anesthesia by sodium pentobarbitol, then a balloon catheter (Fogarty, 2F) was inserted from the right external carotid artery until the starting portion of the common carotid artery. The balloon was expanded by physiological saline to such an extent causing a light resistance, then the catheter was pulled out in that state up to the carotid artery to give trauma to the intima. This procedure was repeated three times, then the catheter was withdrawn and the external carotid artery was sewn up. After 14 days, the chest was opened under anesthesia by pentobarbitol, refluxing was performed from the left ventricle by physiological saline containing heparin (20 units/ml), then the left common carotid artery was excised and immobilized by neutral formalin solution. The immobilized carotid artery was dyed by Olsein dye, then the areas of the media and thickened portion of the intima were measured by an image resolution device (LUZEX2D).
The test drug began to be administered subcutaneously at a rate of 1.0 µg/rat/hr or 3.2 µg/rat/hr using a miniosmotic pump buried in the back of the rat from two days before the surgery and was continued until 14 days after the surgery. The activity of the drug in suppressing intima thickening was found from the following formula.

[3] = system: rat vascular smooth muscle cells (SMC); test: Suppression of PDGF-induced wandering of rat vascular smooth muscle cells in vitro (blind well chamber); type: cell-based, rats; settings: PDGF 20 ng/ml, 4 hours; for No. of wandering cells: average ± standard error, n=3, control 176±19; for Suppression rate: cell wandering suppression rate = 100 - (T/C x 100)
Protocol: Media tissue of the chest arteries of the rats was sampled in accordance with the method of Ross (J. Cell Biol. 50: 172-186, 1971), then was incubated by a Delvecco Modified Eagle Medium (DMEM) containing 10% fetal calf serum in a CO2 incubator (95% air-5% CO2, 37°C, humidity 100%). The fourth generation cultured cells were used for the experiment. The rat vascular smooth muscle cells (SMC) were freed by a 0.008% trypsin-0.01% EDTA solution and made to wander in DMEM containing 0.1% bovine serum albumin. The wandering of the cells was observed using a 24-well blind well chamber made by Neuro Probe. In the lower chambers were placed 100 µl amounts of a mixture of the cell wandering factor (platelet derived growth factor PDGF 20 ng/ml) and the drug. These were covered by a Nuclepore filter (pore size, 8 µm) made by Corning. 100 µl amounts of the incubation solution containing the drug and in which 5 × 10^5 cells/ml of SMC were made to wander were placed in the top chambers and allowed to stand in a CO2 incubator for 4 hours. After the end of the incubation, the smooth muscle cells were immobilized for each filter, then were Propidum dyed. The cells in the lower chambers were counted in four fields under a laser microscope in a 0.48 mm^2 area field. The average was used as the number of wandering cells.
The rate of suppression of cell wandering (%) was found from the following formula. Cell wandering suppression rate (%) = 100 - (T/C × 100) [formula] wherein, C and T respectively show the number of wandering cells at the time of addition of cell wandering factor minus the number of wandering cells at the time of no addition of cell wandering factor and the number of wandering cells at the time of addition of the drug.

[4] = Acute toxicity test, oral; type: in vivo; settings: rat, in vivo, po, male SD rats; judged from Table 4
Protocol: (§1) The above test compound was tested for acute toxicity using SD rats (6 weeks old, SPE, male) (p.o.), whereupon the results shown in the following Table 4 were obtained.

SD rats = test: Acute toxicity test, oral; type: in vivo; settings: male SD rats, 6 weeks old, deaths/animals
Protocol: as §1

[5] = 1.0 µg/rat/hr s.c. by miniosmotic pump

With CCCCC[C@H](O)/C=C/[C@H]1[C@H](O)CC(=O)[C@@H]1CCCCCCC(=O)O [Prostaglandin E1, reference compound] the “No. of wandering cells” value ([1]; 10^-7 M) was 82.6±17.8, the “No. of wandering cells” value ([1]; 10^-8 M) was 82.4±6.9 and the Suppression rate ([1]; 10^-9 M) was “No significance”. The “No. of wandering cells” value ([1]; 10^-9 M) was 91.0±9.8.

Molecule CCCC[C@@H](C)C[C@H](O)/C=C/[C@H]1[C@H](O)CC(=O)[C@@H]1SCCCCCC(=O)OC [Test Compound, (17R)-17,20-dimethyl-7-thiaprostaglandin E1 methyl ester] has an Intima ([2]; 1.0 µg/rat/hr s.c. by miniosmotic pump, average, standard error in the row below) of 0.118 mm², an Intima/Media [2, 5] of 0.842 and a Media [2, 5] of 0.14 mm². For the same molecule, the Suppression rate ([2]; 1.0 µg/rat/hr s.c.) was 13.1%, the Intima ([2]; 3.2 µg/rat/hr s.c. by miniosmotic pump, P < 0.01 vs control) was 0.093 mm² and the Intima/Media ([2]; 3.2 µg/rat/hr s.c. by miniosmotic pump, P < 0.05 vs control) was 0.630. The Media ([2]; 3.2 µg/rat/hr s.c. by miniosmotic pump) was 0.158 mm², the Suppression rate ([2]; 3.2 µg/rat/hr s.c.) was 31.4% and the “No. of wandering cells” value ([3]; 10^-8 M) was 107±15##(T) cells/0.48 mm^2. The Suppression rate ([3]; 10^-8 M) was 39.2%, the “No. of wandering cells” value ([3]; 10^-9 M) was 117±19##(T) cells/0.48 mm^2 and the Suppression rate ([3]; 10^-9 M) was 33.5%. The Suppression rate ([1]; 10^-7 M) was 78.0%, the “No. of wandering cells” value ([1]; 10^-7 M) was 19.0±11.8 and the Suppression rate ([1]; 10^-8 M) was 41.0%. For the same molecule, the “No. of wandering cells” value ([1]; 10^-8 M) was 51.0±9.5, the Suppression rate ([1]; 10^-9 M) was 22.2% and the “No. of wandering cells” value ([1]; 10^-9 M) was 67.2±15.7. For the same molecule, the LD50 [4] was about 100 mg/kg, the No. of deaths (SD rats; 20 mg/kg p.o.) was 0/2 and the No. of deaths (SD rats; 100 mg/kg p.o.) was 1/2. For the same molecule, the No. of deaths (SD rats; 200 mg/kg p.o.) was 2/2.
